Source: patent US20240293500A1, “PEPTIDE HAVING ANTICANCER ACTIVITY, AND USE THEREOF” (Korea University Research and Business Foundation, priority 2021, published 2024)

Legend:
[1] = tested on: MDA-MB-231 xenograft tumor; test: Xenograft tumor model, tumor size; type: in vivo, BALB/c nude mice; details: 2.5 mg/kg intraperitoneally daily, 6 weeks, vs PBS control (FIG. 9)
Experimental: A xenograft tumor model was constructed by injecting MDA-MB-231 cells into immunodeficient BALB/c nude mice and forming tumors for 1 week. Mice with tumors were randomly divided into a control and an experimental group. The control and the experimental group were intraperitoneally injected daily with PBS (the same volume as a peptide) and the No. 1 peptide (2.5 mg/kg), respectively, and then observed for a total of 6 weeks. During the experimental period, a tumor size was measured with a digital caliper every week, and the final tumor size was compared at week 6.

[2] = tested on: extracellular signal-regulated kinase (ERK) protein; test: p-ERK level by Western blot; type: cell-based; details: MDA-MB-231, 1 μM peptide, 24 hours, vs control (FIG. 7)
Experimental: In addition, the change in phosphorylation of extracellular signal-regulated kinase (ERK) protein caused by an anticancer peptide was confirmed. ERK gene is an indicator of drug resistance and inhibition of the growth and apoptosis of cancer cells. The MDA-MB-231 cells were cultured and treated with 1 μM of a peptide (No. 1 or 2). After 24 hours, proteins were isolated from the cells, and a p-ERK level was confirmed by Western blot.

[3] = tested on: matrix metallopeptidase 9 (MMP-9); test: MMP-9 expression by RT-PCR; type: cell-based; details: MDA-MB-231, 1 μM peptide, 24 hours, vs control (FIG. 6)
Experimental: MDA-MB-231 cells were cultured and treated with 1 μM of a peptide (No. 1 or 2). After 24 hours, RNA was isolated from the cells and the expression level of matrix metallopeptidase 9 (MMP-9), which is a key cell migration factor, was confirmed through RT-PCR.

lamin B1 protein = test: Lamin B1 cleavage by western blotting (apoptosis marker); type: cell-based; details: MDA-MB-231, 1 μM peptide, 24 hours, nuclear fraction western blotting (FIG. 8)
Experimental: Next, to confirm the relationship between the anticancer peptide and apoptosis, the degree of cleavage of lamin B1 protein was confirmed. Lamin B1 is originally a type of nuclear protein that is degraded by caspase in apoptosis and used as a biomarker of apoptosis. The MDA-MB-231 cells were cultured and treated with 1 μM of a peptide (No. 1 or 2). After 24 hours, the cells were washed with PBS twice, and lysed with lysis buffer containing NP-40. The nucleus and cytoplasm were separated by centrifugation, and western blotting was performed on each nuclear and cytoplasmic fraction. Here, to determine the degree of separation of the nucleus and cytoplasm, α-tubulin, which is a cytoplasmic marker, and lamin B1 were simultaneously analyzed.

[4] = tested on: MDA-MB-231 triple-negative breast cancer cell line; test: MTT assay, co-treatment of peptide with anticancer agent; type: cell-based; details: for cell proliferation on co-treatment with paclitaxel compared to paclitaxel alone: MDA-MB-231, 1 μM peptide + 5.4 nM paclitaxel (FIGS. 3 and 4)
Experimental: To confirm the cytotoxic and anti-proliferative effect of a peptide discovered in the present invention on cancer cells and normal cells, a 3-(4,5-diemthylthiazolyl-2)-2,5-diphenyltetrazolium bromide (MTT) assay was performed. The MTT assay is a method of measuring the growth of living cells and measuring cell viability using MTT reduction by mitochondrial reductase in living cells.
In addition, peptides and anticancer agents were administered together to the MDA-MB-231 triple-negative breast cancer cell line to explore effects associated with drug co-administration and drug resistance. Triple-negative (ER−/PR−/HER2−) breast cancer is a type of breast cancer that is difficult to treat because it is known to have drug resistance to existing hormone therapy and anticancer drugs, and is a suitable model for research on drug resistance and co-administration.
Cell viability was evaluated by an MTT assay by treating MDA-MB-231 cells with 1 μM of the peptide (No. 1 or 2), and 9 μM abemaciclib or 5.4 nM paclitaxel.

| expression of MMP-9 [3] | Sequence | tumor growth (tumor size) [1] | p-ERK level [2] | cleavage of lamin B1 protein (lamin B1 protein) | cell proliferation on co-treatment with paclitaxel compared to paclitaxel alone [4] | cell proliferation on co-treatment with abemaciclib compared to abemaciclib alone ([4]; MDA-MB-231, 1 μM peptide + 9 μM abemaciclib (FIG. 4)) |
| --- | --- | --- | --- | --- | --- | --- |
| significantly reduced | EKAEEDRYFR (listed as Mus musculus) [No. 1] | significant tumor growth inhibitory effect | significantly reduced | cleaved | further inhibited | – |
| significantly reduced | EQAEEERYFR (listed as Homo sapiens) [No. 2] | – | significantly reduced | cleaved | further inhibited | further inhibited |
